Measurements: patent US20250195679A1, “ANTIBODY-DRUG CONJUGATE AND USE THEREOF” (SHANGHAI HUAOTA BIOPHARMACEUTICAL CO., LTD., priority 2022, published 2025)

Tests used:
[1] = test system: MDA-MB-231 human breast cancer cells; assay: MDA-MB-231 triple-negative breast cancer CDX mouse efficacy model (Example 8); format: in vivo, NPG mice; details: 5 mg/kg i.p. BIW, 8 doses, FIG. 8
Description: NPG mice were used to establish an MDA-MB-231 triple-negative breast cancer animal model for assaying the efficacy of the test antibodies. The MDA-MB-231 human breast cancer cells used in this example were incubated in an L-15 medium supplemented with 10% FBS in an incubator at 37° C. without CO2. Before continuous cell culturing for ten generations, about 5.0×10^6 MDA-MB-231 cells were suspended in 100 μL of PBS and then mixed uniformly with an equal volume of Matrigel. The mixture was then inoculated by subcutaneous injection into NPG humanized mice on the right side of the back near the axilla, with an inoculation volume of about 200 μL. The mice were anesthetized with 2%-5% isoflurane prior to the inoculation. On the day of inoculation, 1.0×10^7 PBMCs (100 μL) were injected via the tail vein. When the tumors grew to an average size of about 50-80 mm^3, the […] tumor-bearing mice were randomly divided into 7 groups of 6 based on tumor volume and body weight. […] Oleclumab is an anti-CD73 monoclonal antibody developed by AstraZeneca, currently in Phase 2 clinical trials. The amino acid sequence of the heavy chain of 900201 is as set forth in SEQ ID NO. 43, and the amino acid sequence of the light chain of 900201 is as set forth in SEQ ID NO. 44.

[2] = test system: BxPC-3 human pancreatic cancer cells; assay: BxPC3 CDX pancreatic cancer mouse efficacy model; format: in vivo, NPG mice; details: 5 mg/kg i.p. BIW, 6 doses, FIG. 7
Description: NPG mice were used to establish a BxPC-3 pancreatic cancer animal model for assaying the efficacy of the test antibodies. The BxPC-3 human pancreatic cancer cells used in this example were incubated in an RPMI-1640 medium supplemented with 10% FBS in an incubator at 37° C. with 5% CO2. Before continuous cell culturing for ten generations, 100 μL of PBS containing about 1×10^7 BxPC-3 cells was mixed uniformly with an equal volume of Matrigel. The mixture was then inoculated by subcutaneous injection into 18 NPG mice on the right side of the back near the axilla, with an inoculation volume of about 200 μL. The mice were anesthetized with 2%-5% isoflurane prior to the inoculation. On the day of inoculation, 1.0×10^7 PBMCs (100 μL) were injected via the tail vein. When the tumors grew to an average size of about 50-80 mm^3, the 18 tumor-bearing mice were randomly divided into 3 groups of 6 based on tumor volume and body weight.
Oleclumab is an anti-CD73 monoclonal antibody developed by AstraZeneca, currently in Phase 2 clinical trials. Uliledlimab is an anti-CD73 monoclonal antibody developed by I-Mab Biopharma, currently in Phase 1 clinical trials. The amino acid sequence of the heavy chain of 900543 is as set forth in SEQ ID NO. 45, and the amino acid sequence of the light chain of 900543 is as set forth in SEQ ID NO. 46. […]

Substance | inhibition of growth of MDA-MB-231 breast cancer [1] | inhibition of growth of BxPC-3 pancreatic cancer [2]
900201: negative control antibody, which does not bind to the CD73 antigen; heavy chain SEQ ID NO. 43, light chain SEQ ID NO. 44 [compound 900201, reference compound] | could not inhibit the tumor growth | –
900543: negative control antibody, which does not bind to the CD73 antigen; heavy chain SEQ ID NO. 45, light chain SEQ ID NO. 46 [compound 900543, reference compound] | – | could not inhibit tumor growth
